Data: patent US11274332B2, “Methods of administering 3,4-diaminopyridine” (SERB SA, priority 2011, dated 2022)

Assay: Food-effect crossover study, adverse events after single 20 mg amifampridine phosphate in healthy subjects (Examples 10, 11)
Type: in vivo
Experimental: This was a randomized, open-label, 2-treatment, 2-period crossover study with 44 completed subjects to assess the safety, tolerability, and the effect of food on the relative bioavailability of a single dose of amifampridine phosphate.
Safety was evaluated for all subjects who take at least one dose of 3,4-DAP. Safety was evaluated by recording the incidence of adverse events (AEs), physical examination, vital signs, concomitant medications, clinical laboratory assessments, and 12-lead electrocardiogram (ECG).
Analysis for the following safety parameters was carried out on the Safety Population: AEs which included all AEs, AEs by severity, drug-related AEs, deaths, SAEs, AEs leading to study discontinuation, and most frequent AEs, standard clinical laboratory tests, vital signs, ECG measurements, routine physical examinations, and prior and concomitant medications. The cut-off for frequency of AEs reported was determined based on the data. No formal statistical testing was performed for the safety analyses; only descriptive statistics were provided. Appropriate descriptive statistics for the safety data were determined using SAS Version 9.2.
AEs were coded according to the Medical Dictionary for Regulatory Activities (MedDRA; Version 13.0). […] The occurrence of AEs was assessed continuously from the time the subject signed the VID and consent. The reporting period for non-serious AEs was from the first dose to the final study visit. The investigator determined the severity of each event and the relationship of an AE to the IP and recorded it on the source documents and AE CRF. The nature, time of onset, duration, severity, and relationship to study drug was documented, including documentation of investigator assessment and review. All events were assessed to determine if the AE was serious.
The Investigator determined the severity of each event and the event was recorded on the source documents and AE CRF. A coding of “mild” meant there was no limitation of usual activities, “moderate” meant there was some limitation of usual activities, “severe” meant there was an inability to carry out usual activities.
The reporting period for AEs that met the criteria of an SAE began from the time of signing the VID and consent form through follow-up or early termination. […] Clinical Laboratory Assessments

SMILES: Nc1ccncc1N.O=P(O)(O)O [amifampridine phosphate, 3,4-diaminopyridine phosphate]
- General Disorders and Administration Site Conditions Total, drug-related AE: events (Female N=16): 2
- General Disorders and Administration Site Conditions Total, drug-related AE: subjects (Female N=16): 2
- Headache, drug-related AE: % of subjects (Female N=16): 19%
- Headache, drug-related AE: events (Female N=16): 3
- Headache, drug-related AE: subjects (Female N=16): 3
- Hypoaesthesia Facial, drug-related AE: % of subjects (Female N=16): (0%) [0]
- Hypoaesthesia Facial, drug-related AE: events (Female N=16): (0%) [0]
- Hypoaesthesia Facial, drug-related AE: subjects (Female N=16): 0
- Hypoaesthesia Oral, drug-related AE: % of subjects (Female N=16): 6%
- Hypoaesthesia Oral, drug-related AE: events (Female N=16): 1
- Hypoaesthesia Oral, drug-related AE: subjects (Female N=16): 1
- Hypoaesthesia, drug-related AE: % of subjects (Female N=16): 6%
- Hypoaesthesia, drug-related AE: events (Female N=16): 1
- Hypoaesthesia, drug-related AE: subjects (Female N=16): 1
- Nausea, drug-related AE: % of subjects (Female N=16): 13%
- Nausea, drug-related AE: events (Female N=16): 2
- Nausea, drug-related AE: subjects (Female N=16): 2
- Nervous System Disorders Total, drug-related AE: % of subjects (Female N=16): 63%
- Nervous System Disorders Total, drug-related AE: events (Female N=16): 31
- Nervous System Disorders Total, drug-related AE: subjects (Female N=16): 10
- Paraesthesia Oral, drug-related AE: % of subjects (Female N=16): 44%
- Paraesthesia Oral, drug-related AE: events (Female N=16): 12
- Paraesthesia Oral, drug-related AE: subjects (Female N=16): 7
- Paraesthesia, drug-related AE: % of subjects (Female N=16): 38%
- Paraesthesia, drug-related AE: events (Female N=16): 9
- Paraesthesia, drug-related AE: subjects (Female N=16): 6
- Possibly or probably related AEs, Mild: % of subjects (Female N=16): 75%
- Possibly or probably related AEs, Mild: events (Female N=16): 41
- Possibly or probably related AEs, Mild: subjects (Female N=16): 12
- Possibly or probably related AEs, Moderate: % of subjects (Female N=16): 6%
- Possibly or probably related AEs, Moderate: events (Female N=16): 1
- Possibly or probably related AEs, Moderate: subjects (Female N=16): 1
- Possibly or probably related AEs, Severe: % of subjects (Female N=16): (0%) [0]
- Possibly or probably related AEs, Severe: events (Female N=16): (0%) [0]
- Possibly or probably related AEs, Severe: subjects (Female N=16): 0
- Possibly or probably related AEs, Total: % of subjects (Female N=16): 75%
- Possibly or probably related AEs, Total: events (Female N=16): 42
- Possibly or probably related AEs, Total: subjects (Female N=16): 12
- Serious adverse events: % of subjects (Female N=16): (0%) [0]
- Serious adverse events: events (Female N=16): (0%) [0]
- Serious adverse events: subjects (Female N=16): 0
- Skin and Subcutaneous Tissue Disorders Total, drug-related AE: % of subjects (Female N=16): (0%) [0]
- Skin and Subcutaneous Tissue Disorders Total, drug-related AE: events (Female N=16): (0%) [0]
- Skin and Subcutaneous Tissue Disorders Total, drug-related AE: subjects (Female N=16): 0
- Vascular Disorders Total, drug-related AE: % of subjects (Female N=16): 6%
- Vascular Disorders Total, drug-related AE: events (Female N=16): 1
- Vascular Disorders Total, drug-related AE: subjects (Female N=16): 1
- Abdominal Pain Upper, drug-related AE: % of subjects (Male N=31): 3%
- Abdominal Pain Upper, drug-related AE: events (Male N=31): 1
- Abdominal Pain Upper, drug-related AE: subjects (Male N=31): 1
- Abdominal Pain, drug-related AE: % of subjects (Male N=31): 3%
- Abdominal Pain, drug-related AE: events (Male N=31): 1
- Abdominal Pain, drug-related AE: subjects (Male N=31): 1
- Abdominal Tenderness, drug-related AE: % of subjects (Male N=31): (0%) [0]
- Abdominal Tenderness, drug-related AE: events (Male N=31): (0%) [0]
- Abdominal Tenderness, drug-related AE: subjects (Male N=31): 0
- Acne, drug-related AE: % of subjects (Male N=31): 3%
- Acne, drug-related AE: events (Male N=31): 1
- Acne, drug-related AE: subjects (Male N=31): 1
- All treatment emergent AEs, Mild: % of subjects (Male N=31): 58%
- All treatment emergent AEs, Mild: events (Male N=31): 57
- All treatment emergent AEs, Mild: subjects (Male N=31): 18
- All treatment emergent AEs, Moderate: % of subjects (Male N=31): (0%) [0]
- All treatment emergent AEs, Moderate: events (Male N=31): (0%) [0]
- All treatment emergent AEs, Moderate: subjects (Male N=31): 0
- All treatment emergent AEs, Severe: % of subjects (Male N=31): 3%
- All treatment emergent AEs, Severe: events (Male N=31): 1
- All treatment emergent AEs, Severe: subjects (Male N=31): 1
- All treatment emergent AEs, Total: events (Male N=31): 58
- All treatment emergent AEs, Total: subjects (Male N=31): 19
- Constipation, drug-related AE: % of subjects (Male N=31): (0%) [0]
- Constipation, drug-related AE: events (Male N=31): (0%) [0]
- Constipation, drug-related AE: subjects (Male N=31): 0
- Diarrhoea, drug-related AE: % of subjects (Male N=31): (0%) [0]
- Diarrhoea, drug-related AE: events (Male N=31): (0%) [0]
- Diarrhoea, drug-related AE: subjects (Male N=31): 0
- Discontinued due to adverse events: % of subjects (Male N=31): 3%
- Discontinued due to adverse events: events (Male N=31): 1
- Discontinued due to adverse events: subjects (Male N=31): 1
- Dizziness, drug-related AE: % of subjects (Male N=31): 3%
- Dizziness, drug-related AE: events (Male N=31): 2
- Dizziness, drug-related AE: subjects (Male N=31): 1
- Dysgeusia, drug-related AE: % of subjects (Male N=31): 6%
- Dysgeusia, drug-related AE: events (Male N=31): 3
- Dysgeusia, drug-related AE: subjects (Male N=31): 2
- Fatigue, drug-related AE: % of subjects (Male N=31): 6%
- Fatigue, drug-related AE: events (Male N=31): 2
- Fatigue, drug-related AE: subjects (Male N=31): 2
- Feeling Hot, drug-related AE: % of subjects (Male N=31): 3%
- Feeling Hot, drug-related AE: events (Male N=31): 1
- Feeling Hot, drug-related AE: subjects (Male N=31): 1
- Flushing, drug-related AE: % of subjects (Male N=31): (0%) [0]
- Flushing, drug-related AE: events (Male N=31): (0%) [0]
- Flushing, drug-related AE: subjects (Male N=31): 0
- Gastrointestinal Disorders Total, drug-related AE: % of subjects (Male N=31): 13%
- Gastrointestinal Disorders Total, drug-related AE: events (Male N=31): 4
- Gastrointestinal Disorders Total, drug-related AE: subjects (Male N=31): 4
- General Disorders and Administration Site Conditions Total, drug-related AE: % of subjects (Male N=31): 10%
- General Disorders and Administration Site Conditions Total, drug-related AE: events (Male N=31): 3
- General Disorders and Administration Site Conditions Total, drug-related AE: subjects (Male N=31): 3
- Headache, drug-related AE: % of subjects (Male N=31): 6%
- Headache, drug-related AE: events (Male N=31): 2
- Headache, drug-related AE: subjects (Male N=31): 2
- Hypoaesthesia Facial, drug-related AE: % of subjects (Male N=31): 3%
- Hypoaesthesia Facial, drug-related AE: events (Male N=31): 1
- Hypoaesthesia Facial, drug-related AE: subjects (Male N=31): 1
- Hypoaesthesia Oral, drug-related AE: % of subjects (Male N=31): 13%
- Hypoaesthesia Oral, drug-related AE: events (Male N=31): 5
- Hypoaesthesia Oral, drug-related AE: subjects (Male N=31): 4
- Hypoaesthesia, drug-related AE: % of subjects (Male N=31): 3%
- Hypoaesthesia, drug-related AE: events (Male N=31): 1
- Hypoaesthesia, drug-related AE: subjects (Male N=31): 1
- Nausea, drug-related AE: % of subjects (Male N=31): 6%
- Nausea, drug-related AE: events (Male N=31): 2
- Nausea, drug-related AE: subjects (Male N=31): 2
- Nervous System Disorders Total, drug-related AE: % of subjects (Male N=31): 55%
- Nervous System Disorders Total, drug-related AE: events (Male N=31): 43
- Nervous System Disorders Total, drug-related AE: subjects (Male N=31): 17
- Paraesthesia Oral, drug-related AE: % of subjects (Male N=31): 42%
- Paraesthesia Oral, drug-related AE: events (Male N=31): 18
- Paraesthesia Oral, drug-related AE: subjects (Male N=31): 13
- Paraesthesia, drug-related AE: % of subjects (Male N=31): 19%
- Paraesthesia, drug-related AE: events (Male N=31): 11
